{"source": "patent US20110318375A1", "about": "“Immunomodulatory Therapeutic Agents” (priority 2009, published 2011)", "key": {"[1]": {"tested_on": "Experimental Allergic Encephalomyelitis (EAE)", "assay": "Acute Experimental Allergic Encephalomyelitis mouse model", "format": "in vivo, mice", "settings": "subcutaneous, dosed daily, every 3 days and weekly", "from_the_text": "The carboxy terminus of activated Fibrinopeptide A was considered to be the active portion of the peptide, the carboxy terminus was PEGylate (addition of Poly Ethylene Glycol). This molecule was used to perform an EAE study. This study was designed to mimic the study done by Ruhenstroth-Bauer in 1981 utilizing two of these peptides, and showing some albeit mild benefit. The synthetic PEGylated peptide was expected to perform considerably better than the non-PEGylated peptide. Synthetic non-PEGylated peptide A was used as a positive control to compare the PEGylated verses non-PEGylated peptides. The medications were administered subcutaneously, due to this route having some efficacy in the cytokine profiles.\nTest article 2 (PEGylated peptide) dosed daily, every 3 days and weekly never even approached statistically significant benefit.\nDuring the first 22 days of the study EAE development in mice treated with test article 1 (daily non-PEGylated peptide A) was very similar to the vehicle-treated mice. […] Disease worsened in test article 1-treated mice on days 27 and 28 and became very similar to disease severity to the mice in the vehicle-treated group."}, "Ponto Toro Virus": {"tested_on": "Ponto Toro Virus", "format": "in vivo, mice", "settings": "mouse, in vivo"}, "cytokine panels": {"tested_on": "cytokine panels", "assay": "Cytokine panels for 24 hours after synthetic imf-C3, healthy volunteer", "format": "in vivo, human", "settings": "followed for 24 hours", "description": "After getting back the results of the Ponto Toro test and seeing no results from imf-C3, a healthy volunteer was given synthetic imf-C3 and cytokine panels were followed for 24 hours."}}, "note": "Entries after “also recorded” stand apart in the source; their conditions may differ. No end group written: not given here. PEG = not defined here", "data": [{"substance": "PEGylated peptide: activated Fibrinopeptide A with Poly Ethylene Glycol added to the carboxy terminus (ADSGEGDFLAEGGGVR-{PEG}; reading uncertain; UniProt P02671 20-35, looked up)", "values": [{"measurement": "EAE development / activity versus vehicle-treated mice", "setting": "[1]", "result": "little or no response; also recorded: no activity"}, {"measurement": "EAE development / activity versus vehicle-treated mice", "setting": "[1]; listed as PEGylated Fibrinopeptide A", "result": "decrease any measurable activity"}]}, {"substance": "SEETKENERFTV [imf-C3]", "values": [{"measurement": "results of the Ponto Toro test", "setting": "Ponto Toro Virus", "result": "no results"}, {"measurement": "changes in cytokine panels", "setting": "cytokine panels", "result": "did not demonstrate in any changes"}]}]}
